{"source": "PubChem BioAssay AID2060619", "about": "(Molecular Pharmacology Branch, DTP, NCI, 2025)", "tested_on": "323965-272-R-J2-PDC complex spheroid viability", "experiment": "Anticancer human tumor 323965-272-R-J2-PDC patient-derived pancreatic carcinoma cell line growth inhibition [CLK]", "settings": "for viability, T/C: stronger effect = lower value", "summary_of_the_method": "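Patient-derived tumor cells grown as complex spheroids with HUVEC endothelial cells and mesenchymal stem cells, treated with drug combinations. Concentrations descend in half-log steps from near clinical Cmax, or from 10 microM if Cmax unknown.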", "note": "Where “and” joins values, the source holds several entries; their conditions need not be identical. Identical values can stand only once.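 Note: spheroids exposed to agents for seven days before readout.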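 Throughout, for viability, T/C: percent of DMSO vehicle control wells so 100% = untreated growth.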", "data": [{"smiles": "CC(CO)NC(=O)c1cc(-c2ccc(Cl)cc2)nn(-c2cnn(C)c2)c1=O", "note": "(centres undefined) + CNC(=O)c1ccc(Nc2nc(OC3CCCC3)c3c(-c4ccc5nc(C)oc5c4)c[nH]c3n2)c(OC)c1", "values": [{"measurement": "IC50", "setting": "curve of first compound, second compound 0.0316 µM", "value": "> 10", "unit": "µM"}, {"measurement": "IC50", "setting": "curve of first compound, second compound 0.1 µM", "value": "> 10", "unit": "µM"}, {"measurement": "IC50", "setting": "curve of first compound, second compound 0.316 µM", "value": "> 10", "unit": "µM"}, {"measurement": "IC50", "setting": "curve of first compound, second compound 1 µM", "value": "< 0.0316", "unit": "µM"}, {"measurement": "IC50", "setting": "curve of first compound, second compound 3.16 µM", "value": "< 0.0316", "unit": "µM"}, {"measurement": "IC50", "setting": "curve of first compound, second compound 10 µM", "value": "< 0.0316", "unit": "µM"}, {"measurement": "viability, T/C", "setting": "second compound 0.0316 µM, first compound 0.0316 µM", "value": 122, "unit": "%"}, {"measurement": "viability, T/C", "setting": "second compound 0.0316 µM, first compound 0.1 µM", "value": 85.6, "unit": "%"}, {"measurement": "viability, T/C", "setting": "second compound 0.0316 µM, first compound 0.316 µM", "value": 100, "unit": "%"}, {"measurement": "viability, T/C", "setting": "second compound 0.0316 µM, first compound 1 µM", "value": 101, "unit": "%"}, {"measurement": "viability, T/C", "setting": "second compound 0.0316 µM, first compound 3.16 µM", "value": 102, "unit": "%"}, {"measurement": "viability, T/C", "setting": "second compound 0.0316 µM, first compound 10 µM", "value": 103, "unit": "%"}, {"measurement": "viability, T/C", "setting": "second compound 0.1 µM, first compound 0.0316 µM", "value": 81.2, "unit": "%"}, {"measurement": "viability, T/C", "setting": "second compound 0.1 µM, first compound 0.1 µM", "value": 80.5, "unit": "%"}, {"measurement": "viability, T/C", "setting": "second compound 0.1 µM, first compound 0.316 µM", "value": 76.5, "unit": "%"}, {"measurement": "viability, T/C", "setting": "second compound 0.1 µM, first compound 1 µM", "value": 73.7, "unit": "%"}, {"measurement": "viability, T/C", "setting": "second compound 0.1 µM, first compound 3.16 µM", "value": 76.9, "unit": "%"}, {"measurement": "viability, T/C", "setting": "second compound 0.1 µM, first compound 10 µM", "value": 72.1, "unit": "%"}, {"measurement": "viability, T/C", "setting": "second compound 0.316 µM, first compound 0.0316 µM", "value": 60, "unit": "%"}, {"measurement": "viability, T/C", "setting": "second compound 0.316 µM, first compound 0.1 µM", "value": 67.4, "unit": "%"}, {"measurement": "viability, T/C", "setting": "second compound 0.316 µM, first compound 0.316 µM", "value": 67.1, "unit": "%"}, {"measurement": "viability, T/C", "setting": "second compound 0.316 µM, first compound 1 µM", "value": 57.8, "unit": "%"}, {"measurement": "viability, T/C", "setting": "second compound 0.316 µM, first compound 3.16 µM", "value": 61, "unit": "%"}, {"measurement": "viability, T/C", "setting": "second compound 0.316 µM, first compound 10 µM", "value": 53.4, "unit": "%"}, {"measurement": "viability, T/C", "setting": "second compound 1 µM, first compound 0.0316 µM", "value": 50.8, "unit": "%"}, {"measurement": "viability, T/C", "setting": "second compound 1 µM, first compound 0.1 µM", "value": 41.2, "unit": "%"}, {"measurement": "viability, T/C", "setting": "second compound 1 µM, first compound 0.316 µM", "value": 42.2, "unit": "%"}, {"measurement": "viability, T/C", "setting": "second compound 1 µM, first compound 1 µM", "value": 51.1, "unit": "%"}, {"measurement": "viability, T/C", "setting": "second compound 1 µM, first compound 3.16 µM", "value": 51.6, "unit": "%"}, {"measurement": "viability, T/C", "setting": "second compound 1 µM, first compound 10 µM", "value": 48.7, "unit": "%"}, {"measurement": "viability, T/C", "setting": "second compound 3.16 µM, first compound 0.0316 µM", "value": 41.8, "unit": "%"}, {"measurement": "viability, T/C", "setting": "second compound 3.16 µM, first compound 0.1 µM", "value": 42.5, "unit": "%"}, {"measurement": "viability, T/C", "setting": "second compound 3.16 µM, first compound 0.316 µM", "value": 40.1, "unit": "%"}, {"measurement": "viability, T/C", "setting": "second compound 3.16 µM, first compound 1 µM", "value": 35.5, "unit": "%"}, {"measurement": "viability, T/C", "setting": "second compound 3.16 µM, first compound 3.16 µM", "value": 44.4, "unit": "%"}, {"measurement": "viability, T/C", "setting": "second compound 3.16 µM, first compound 10 µM", "value": 47.1, "unit": "%"}, {"measurement": "viability, T/C", "setting": "second compound 10 µM, first compound 0.0316 µM", "value": 43.2, "unit": "%"}, {"measurement": "viability, T/C", "setting": "second compound 10 µM, first compound 0.1 µM", "value": 40.4, "unit": "%"}, {"measurement": "viability, T/C", "setting": "second compound 10 µM, first compound 0.316 µM", "value": 36.8, "unit": "%"}, {"measurement": "viability, T/C", "setting": "second compound 10 µM, first compound 1 µM", "value": 43.1, "unit": "%"}, {"measurement": "viability, T/C", "setting": "second compound 10 µM, first compound 3.16 µM", "value": 41.5, "unit": "%"}, {"measurement": "viability, T/C", "setting": "second compound 10 µM, first compound 10 µM", "value": 41.4, "unit": "%"}]}, {"smiles": "CC(Nc1ccc2c(c1)OCCn1cc(N3C(=O)OCC3C(F)F)nc1-2)C(N)=O", "note": "(centres undefined)", "values": [{"measurement": "viability, T/C", "setting": "compound 0.0316 µM", "value": "94.2% and 96.6%"}, {"measurement": "viability, T/C", "setting": "compound 0.1 µM", "value": "89.2% and 83.2%"}, {"measurement": "viability, T/C", "setting": "compound 0.316 µM", "value": "76.2% and 66.7%"}, {"measurement": "viability, T/C", "setting": "compound 1 µM", "value": "67.8% and 65.5%"}, {"measurement": "viability, T/C", "setting": "compound 3.16 µM", "value": "63.1% and 68.3%"}, {"measurement": "viability, T/C", "setting": "compound 10 µM", "value": "50.9% and 47.6%"}, {"measurement": "IC50", "setting": "curve of compound", "value": "> 10", "unit": "µM"}]}]}
